# Reference: the supplement of paper PMC4862054
# Columns and labels:
# Conditions in all cases: incubation time: 72 h
# MDA-MB-231 [1] = assay: normalised viability (% of control), CellTiter-Blue; higher = more viable cells (100 = DMSO, 0 = benzethonium chloride kill control)
# Method: (§1)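 DSRT, CellTiter-Blue viability, 72 h incubation. Signal is normalised to DMSO and benzethonium chloride controls. Value is the normalised response at dose 1.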
# CAL-148 [2] = assay: as above
# Method: as §1
# HDQ-P1 [3] = assay: as above
# Method: as §1
# BT-549 [4] = assay: as above
# Method: as §1
# MDA-MB-453 [5] = assay: as above
# Method: as §1
# BT-474 [6] = assay: as above
# Method: as §1
# MFM-223 [7] = assay: as above
# Method: as §1
# DU-4475 [8] = assay: as above
# Method: as §1
# HCC1143 [9] = assay: as above
# Method: as §1
# SK-BR-3 [10] = assay: as above
# Method: as §1
# CAL-120 = assay: as above
# Method: as §1
# MDA-MB-468 [11] = assay: as above
# Method: as §1
# CAL-51 [12] = assay: as above
# Method: as §1
# CAL-85-1 = assay: as above
# Method: as §1
# HCC1937 [13] = assay: as above
# Method: as §1
# HCC1599 [14] = assay: as above
# Method: as §1
# MDA-MB-231 [15] = assay: normalised viability (% of control), CellTiter-Blue; higher = more viable cells (about 100 = DMSO control)
# Method: (§2)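 DSRT, CellTiter-Blue viability, 72 h incubation. Signal is normalised to DMSO and benzethonium chloride controls. Value is the normalised response at dose 3.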
# Hs578T = assay: as above
# Method: as §2
# CAL-148 [16] = assay: as above
# Method: as §2
# HDQ-P1 [17] = assay: as above
# Method: as §2
# BT-549 [18] = assay: as above
# Method: as §2
# MDA-MB-453 [19] = assay: as above
# Method: as §2
# BT-474 [20] = assay: as above
# Method: as §2
# MFM-223 [21] = assay: as above
# Method: as §2
# DU-4475 [22] = assay: as above
# Method: as §2
# HCC1143 [23] = assay: as above
# Method: as §2
# SK-BR-3 [24] = assay: as above
# Method: as §2
# MDA-MB-468 [25] = assay: as above
# Method: as §2
# CAL-51 [26] = assay: as above
# Method: as §2
# HCC1937 [27] = assay: as above
# Method: as §2
# HCC1599 [28] = assay: as above
# Method: as §2
# MDA-MB-436 = assay: as above
# Method: as §2
compound,measurement,setting,value
COc1ccc(-c2ccc3c(N4CCOC[C@@H]4C)nc(N4CCOC[C@@H]4C)nc3n2)cc1CO [AZD8055],normalised viability,MDA-MB-231 [1]; 1 nM,98.3%
same,normalised viability,CAL-148 [2]; 1 nM,94.6%
same,normalised viability,HDQ-P1 [3]; 1 nM,104%
same,normalised viability,BT-549 [4]; 1 nM,106%
same,normalised viability,MDA-MB-453 [5]; 1 nM,89.3%
same,normalised viability,BT-474 [6]; 1 nM,103%
same,normalised viability,MFM-223 [7]; 1 nM,93%
same,normalised viability,DU-4475 [8]; 1 nM,103%
same,normalised viability,HCC1143 [9]; 1 nM,98.2%
same,normalised viability,SK-BR-3 [10]; 1 nM,103%
same,normalised viability,CAL-120; 1 nM,93.2%
same,normalised viability,MDA-MB-468 [11]; 1 nM,109%
same,normalised viability,CAL-51 [12]; 1 nM,94%
same,normalised viability,CAL-85-1; 1 nM,96.2%
same,normalised viability,HCC1937 [13]; 1 nM,102%
same,normalised viability,HCC1599 [14]; 1 nM,97.8%
same,normalised viability,MDA-MB-231 [15]; 100 nM,50%
same,normalised viability,Hs578T; 100 nM,33.7%
same,normalised viability,CAL-148 [16]; 10 nM,80.9%
same,normalised viability,HDQ-P1 [17]; 10 nM,76.8%
same,normalised viability,BT-549 [18]; 100 nM,44.3%
same,normalised viability,MDA-MB-453 [19]; 10 nM,80.3%
same,normalised viability,BT-474 [20]; 100 nM,52.2%
same,normalised viability,MFM-223 [21]; 100 nM,26.6%
same,normalised viability,DU-4475 [22]; 10 nM,102%
same,normalised viability,HCC1143 [23]; 100 nM,55.8%
same,normalised viability,SK-BR-3 [24]; 100 nM,23.6%
same,normalised viability,MDA-MB-468 [25]; 100 nM,70%
same,normalised viability,CAL-51 [26]; 10 nM,67.4%
same,normalised viability,HCC1937 [27]; 100 nM,42.6%
same,normalised viability,HCC1599 [28]; 100 nM,65.9%
same,normalised viability,MDA-MB-436; 100 nM,70.7%
CC[C@]1(O)C[C@H]2CN(CCc3c([nH]c4ccccc34)[C@@](C(=O)OC)(c3cc4c(cc3OC)N(C=O)[C@H]3[C@@](O)(C(=O)OC)[C@H](OC(C)=O)[C@]5(CC)C=CCN6CC[C@]43[C@@H]65)C2)C1 [Vincristine],normalised viability,MDA-MB-231 [1]; 0.1 nM,95.8%
same,normalised viability,MDA-MB-231 [1]; 1 nM,82.5%
same,normalised viability,CAL-148 [2]; 0.1 nM,87.6%
same,normalised viability,CAL-148 [2]; 1 nM,108%
same,normalised viability,HDQ-P1 [3]; 0.1 nM,90%
same,normalised viability,HDQ-P1 [3]; 1 nM,95.3%
same,normalised viability,BT-549 [4]; 0.1 nM,93.1%
same,normalised viability,BT-549 [4]; 1 nM,93.5%
same,normalised viability,MDA-MB-453 [5]; 0.1 nM,107%
same,normalised viability,MDA-MB-453 [5]; 1 nM,88.5%
same,normalised viability,BT-474 [6]; 0.1 nM,97.2%
same,normalised viability,BT-474 [6]; 1 nM,41.5%
same,normalised viability,MFM-223 [7]; 0.1 nM,99.7%
same,normalised viability,MFM-223 [7]; 1 nM,91%
same,normalised viability,DU-4475 [8]; 0.1 nM,97.6%
same,normalised viability,DU-4475 [8]; 1 nM,88.9%
same,normalised viability,HCC1143 [9]; 0.1 nM,80%
same,normalised viability,HCC1143 [9]; 1 nM,89.6%
same,normalised viability,SK-BR-3 [10]; 0.1 nM,87.9%
same,normalised viability,SK-BR-3 [10]; 1 nM,25.5%
same,normalised viability,CAL-120; 0.1 nM,77.9%
same,normalised viability,CAL-120; 1 nM,57.7%
same,normalised viability,MDA-MB-468 [11]; 0.1 nM,87.5%
same,normalised viability,MDA-MB-468 [11]; 1 nM,49.2%
same,normalised viability,CAL-51 [12]; 0.1 nM,103%
same,normalised viability,CAL-51 [12]; 1 nM,93.8%
same,normalised viability,CAL-85-1; 0.1 nM,86.5%
same,normalised viability,CAL-85-1; 1 nM,91.8%
same,normalised viability,HCC1937 [13]; 0.1 nM,74.4%
same,normalised viability,HCC1937 [13]; 1 nM,79.4%
same,normalised viability,HCC1599 [14]; 0.1 nM,119%
same,normalised viability,HCC1599 [14]; 1 nM,93.9%
same,normalised viability,MDA-MB-231 [15]; 10 nM,29.5%
same,normalised viability,MDA-MB-231 [15]; 100 nM,16.1%
same,normalised viability,Hs578T; 10 nM,16.6%
same,normalised viability,Hs578T; 100 nM,19.3%
same,normalised viability,CAL-148 [16]; 1 nM,91.3%
same,normalised viability,CAL-148 [16]; 10 nM,90.2%
same,normalised viability,HDQ-P1 [17]; 1 nM,109%
same,normalised viability,HDQ-P1 [17]; 10 nM,90.7%
same,normalised viability,BT-549 [18]; 10 nM,29.3%
same,normalised viability,BT-549 [18]; 100 nM,25.2%
same,normalised viability,MDA-MB-453 [19]; 1 nM,103%
same,normalised viability,MDA-MB-453 [19]; 10 nM,31.6%
same,normalised viability,BT-474 [20]; 10 nM,46.2%
same,normalised viability,BT-474 [20]; 100 nM,57.2%
same,normalised viability,MFM-223 [21]; 10 nM,59.8%
same,normalised viability,MFM-223 [21]; 100 nM,39.5%
same,normalised viability,DU-4475 [22]; 1 nM,102%
same,normalised viability,DU-4475 [22]; 10 nM,78.8%
same,normalised viability,HCC1143 [23]; 10 nM,34.2%
same,normalised viability,HCC1143 [23]; 100 nM,40.4%
same,normalised viability,SK-BR-3 [24]; 10 nM,15.6%
same,normalised viability,SK-BR-3 [24]; 100 nM,15.8%
same,normalised viability,MDA-MB-468 [25]; 10 nM,50.6%
same,normalised viability,MDA-MB-468 [25]; 100 nM,32.1%
same,normalised viability,CAL-51 [26]; 1 nM,108%
same,normalised viability,CAL-51 [26]; 10 nM,87.8%
same,normalised viability,HCC1937 [27]; 10 nM,33.6%
same,normalised viability,HCC1937 [27]; 100 nM,17.8%
same,normalised viability,HCC1599 [28]; 10 nM,93.5%
same,normalised viability,HCC1599 [28]; 100 nM,51.1%
same,normalised viability,MDA-MB-436; 10 nM,52.4%
same,normalised viability,MDA-MB-436; 100 nM,44.9%
